# From patent US6900202B2, “Di-substituted imineheterocyclic compounds” (priority 2000, dated 2005)
# Assays:
# [1] = target: T1, α4β2 subtype of nicotinic acetylcholine receptors (Rattus norvegicus, UniProt P09483+P12390); experiment: Binding assay at α4β2 subtype of nicotinic acetylcholine receptors ([3H]-cytisine, rat brain membrane); settings: for control % of [3H]-cytisine binding at 1 μM of test compound: 1 μM test compound; for control % of [3H]-cytisine binding at 1 μM of test compound / control % of [3H]-cytisine binding at 10 μM of test compound: % of control binding remaining; for control % of [3H]-cytisine binding at 10 μM of test compound: 10 μM test compound
# T1 construct: examined using rat brain membrane obtained from whole homogenized brain; from tissue; host or cells: whole brain membranes of Fischer-344 male rats
# T1 sequence (P09483 31-630): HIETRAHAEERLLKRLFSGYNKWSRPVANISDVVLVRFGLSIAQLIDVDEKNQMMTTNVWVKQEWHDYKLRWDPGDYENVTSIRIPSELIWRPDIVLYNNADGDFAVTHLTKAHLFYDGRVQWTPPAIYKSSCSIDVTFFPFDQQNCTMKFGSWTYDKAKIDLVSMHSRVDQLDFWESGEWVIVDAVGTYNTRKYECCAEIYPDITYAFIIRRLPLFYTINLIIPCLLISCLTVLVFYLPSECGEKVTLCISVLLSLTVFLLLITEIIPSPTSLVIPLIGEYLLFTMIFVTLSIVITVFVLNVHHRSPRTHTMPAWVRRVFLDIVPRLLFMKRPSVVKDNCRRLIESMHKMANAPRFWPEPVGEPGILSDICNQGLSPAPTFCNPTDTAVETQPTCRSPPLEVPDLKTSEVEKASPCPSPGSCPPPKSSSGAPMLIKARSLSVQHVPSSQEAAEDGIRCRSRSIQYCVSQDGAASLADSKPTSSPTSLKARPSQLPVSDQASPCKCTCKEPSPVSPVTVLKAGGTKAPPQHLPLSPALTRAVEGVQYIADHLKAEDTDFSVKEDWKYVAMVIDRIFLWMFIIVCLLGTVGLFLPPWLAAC
# T1 sequence (P12390 25-500): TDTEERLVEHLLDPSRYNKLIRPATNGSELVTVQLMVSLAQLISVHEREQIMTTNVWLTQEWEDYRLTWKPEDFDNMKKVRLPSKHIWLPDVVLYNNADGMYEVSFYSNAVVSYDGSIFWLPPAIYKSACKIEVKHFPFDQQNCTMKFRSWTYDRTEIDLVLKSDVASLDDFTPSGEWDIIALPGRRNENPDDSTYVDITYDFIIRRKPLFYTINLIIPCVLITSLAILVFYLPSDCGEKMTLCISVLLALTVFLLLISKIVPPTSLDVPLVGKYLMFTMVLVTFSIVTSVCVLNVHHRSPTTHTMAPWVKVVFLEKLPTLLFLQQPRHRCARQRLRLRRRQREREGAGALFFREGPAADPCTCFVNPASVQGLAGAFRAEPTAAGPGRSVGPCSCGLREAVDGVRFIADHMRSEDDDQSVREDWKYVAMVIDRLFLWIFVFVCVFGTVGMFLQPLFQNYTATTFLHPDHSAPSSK
# Description: (§1) The methods for evaluating the binding capabilities of the compounds against nicotinic acetylcholine receptors are different by subtypes of receptors. The binding capabilities of the compounds at α4β2 nicotinic acetylcholine receptors are examined using rat brain membrane obtained from whole homogenized brain, and determining the inhibiting rate of the compounds against [^3H]-cytisine binding to said brain membrane. Furthermore, the binding capabilities of the compounds at α1β1γδ nicotinic acetylcholine receptors are examined using homogenized rat muscle, and determining the inhibiting rate of the compounds against [^3H]-α-bungarotoxin binding to said muscle membrane.
# Binding Assays at α4β2 Subtype of Nicotinic Acetylcholine Receptors
# The affinity of the compounds of the present invention to α4β2 subunit of nicotinic acetylcholine receptors was performed by the following method, which was modified method described by Pabreza L. A., Dhawan S. & Kellar K. J., Mol. Pharm., 39, 9-12 (1990), and by Anderson D. J. & Arneric S. P., Eur. J. Pharm., 253, 261-267 (1994).
# (1) Preparation of Rat Brain Membrane Containing α4β2 subtype of Nicotinic Acetylcholine Receptors
# Fischer-344 strain male rats (body weight: 200-240 g; 9 weeks old) obtained from Charles River Japan were used. Rats were housed in the breeding cage controlled of the room temperature at 23±1° C., and the humidity of 55±5% for 1 to 4 weeks. Rats (3 to 4 rats per a cage) were housed with lights on for 12 hours daily (from 7:00 to 19:00), and allowed free access to food and water.
# Preparation of rat brain membrane containing α4β2 subtype of nicotinic acetylcholine receptors was performed as follow. That is, rat brains were isolated just after sacrificed by decapitation, washed with ice-cooled saline solution and then frozen at −80° C. with liquid nitrogen and stored till using. After thawing the frozen brain, the brain was homogenized in 10 volumes of buffer solution (50 mM of Tris-HCl, 120 mM of NaCl, 5 mM of KCl, 1 mM of MgCl2, 2mM of CaCl2; pH 7.4; 4° C.) using homogenizer (HG30, Hitachi Kohki Ltd.) for 30 seconds, and the homogenate were centrifuged under 1,000×G for 10 minutes at 4° C. The resulting supernatant was separated and the pellet was homogenized again with half volume of aforementioned prior buffer solution and centrifuged under the same conditions. Combined supernatant was further centrifuged under 40,000×G for 20 minutes at 4° C. The pellet was suspended in buffer solution and used for binding assays at receptors.
# (2) Experiments of α4β2 Subtype of Nicotinic Acetylcholine Receptors Binding
# Suspensions of membrane pellets containing 400-600 μg of protein were added to test tubes containing test compounds and [^3H]-cytisine (2 nM) in a final volume of 200 μl and incubated for 75 minutes in ice-cooled bath. The samples were isolated by vacuum filtration onto Whatman GF/B filters, which were prerinsed with 0.5% polyethylenimine just prior to sample filtration, using Brandel multi manifold cell harvester. The filters were rapidly washed with buffer solution (3×1 ml). The filters were counted in 3 ml of clearsol I (Nacalai Tesque Inc.).
# The analyses of the experimental results were conducted by using the Accufit Competition Program (Beckman Ltd.).
# [2] = target: T2, α1β1γδ subtype of nicotinic acetylcholine receptors (Rattus norvegicus, UniProt P25108); experiment: biochemical; type: binding; settings: % of control binding remaining; for control % of [3H]-α-Bgt binding at 100 μM of test compound: 100 μM test compound; for control % of [3H]-α-Bgt binding at 1,000 μM of test compound: 1,000 μM test compound
# T2 construct: The centrifugation at 100,000×G for 60 minutes at 4° C. yielded the rat muscle extract as supernatant
# T2 sequence (P25108 21-457): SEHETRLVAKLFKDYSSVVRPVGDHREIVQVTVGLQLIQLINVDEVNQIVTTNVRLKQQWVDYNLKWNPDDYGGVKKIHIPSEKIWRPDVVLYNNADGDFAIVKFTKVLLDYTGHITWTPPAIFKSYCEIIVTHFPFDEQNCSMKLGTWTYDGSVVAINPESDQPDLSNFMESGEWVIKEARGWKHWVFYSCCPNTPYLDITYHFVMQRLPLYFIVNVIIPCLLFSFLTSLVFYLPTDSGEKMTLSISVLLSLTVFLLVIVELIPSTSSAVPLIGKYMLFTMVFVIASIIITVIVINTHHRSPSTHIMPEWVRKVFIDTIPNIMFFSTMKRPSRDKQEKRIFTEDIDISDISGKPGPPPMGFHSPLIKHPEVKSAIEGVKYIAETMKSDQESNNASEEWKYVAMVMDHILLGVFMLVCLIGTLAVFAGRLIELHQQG
# T2 sequence (P25109 24-501, further chain): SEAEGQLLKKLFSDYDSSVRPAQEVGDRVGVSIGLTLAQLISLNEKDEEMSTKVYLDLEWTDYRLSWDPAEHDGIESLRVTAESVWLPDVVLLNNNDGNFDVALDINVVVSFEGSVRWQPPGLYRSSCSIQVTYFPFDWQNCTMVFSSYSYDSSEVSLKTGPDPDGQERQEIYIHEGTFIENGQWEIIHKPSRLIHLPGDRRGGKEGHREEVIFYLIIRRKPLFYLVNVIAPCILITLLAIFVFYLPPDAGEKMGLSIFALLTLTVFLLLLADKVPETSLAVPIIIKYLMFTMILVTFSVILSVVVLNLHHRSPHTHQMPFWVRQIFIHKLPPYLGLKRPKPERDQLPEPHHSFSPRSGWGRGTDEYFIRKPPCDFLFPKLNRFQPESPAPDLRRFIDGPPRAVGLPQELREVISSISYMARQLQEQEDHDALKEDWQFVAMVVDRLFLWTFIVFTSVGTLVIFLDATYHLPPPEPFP
# T2 sequence (P25110 22-517, further chain): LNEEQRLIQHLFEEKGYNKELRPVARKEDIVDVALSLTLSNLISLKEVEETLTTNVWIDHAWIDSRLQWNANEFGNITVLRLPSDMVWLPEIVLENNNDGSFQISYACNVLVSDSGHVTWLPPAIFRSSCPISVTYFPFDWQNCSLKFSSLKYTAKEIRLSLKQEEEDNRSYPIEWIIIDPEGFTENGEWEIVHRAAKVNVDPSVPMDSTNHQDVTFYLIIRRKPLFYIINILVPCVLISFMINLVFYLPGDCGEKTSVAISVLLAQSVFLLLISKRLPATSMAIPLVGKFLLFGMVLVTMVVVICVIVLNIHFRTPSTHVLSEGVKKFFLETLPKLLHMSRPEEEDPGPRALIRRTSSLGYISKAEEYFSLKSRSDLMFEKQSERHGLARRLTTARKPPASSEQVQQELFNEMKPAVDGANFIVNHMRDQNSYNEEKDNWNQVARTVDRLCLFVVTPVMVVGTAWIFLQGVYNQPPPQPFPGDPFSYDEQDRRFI
# Description: as §1
# Binding Assays at α1β1γδ Subtype of Nicotinic Acetylcholine Receptors
# The affinity of the compounds of the present invention to α1β1γδ subtype of nicotinic acetylcholine receptors was measured by the following method, which was modified method described by Garcha H. S., Thomas P., Spivak C.
# (1) Preparation of Rat Skeletal Muscles Containing α1β1γδ Subtype of Nicotinic Acetylcholine Receptors
# The substantially same animals described in the Biological Experiment 1 were used.
# The isolation of α1β1γδ subtype of nicotinic acetylcholine receptors was performed as follow. That is, rat posterior skeletal muscles were isolated just after sacrificed by decapitation, washed with ice-cooled saline solution and then frozen at −80° C. with liquid nitrogen and stored till using. After thawing the frozen muscles, tissue was homogenized (40% w/v) with buffer solution [2.5 mM of sodium phosphate buffer (pH:7.2), 90 mM of NaCl, 2 mM of KCl, 1 mM of EDTA, 2 mM of benzamidine, 0.1 mM of benzethonium chloride, 0.1 mM of PMSF, 0.01% of sodium azide] in Waring blender [Waring blender 34BL97; WARING PRODUCTS DIVISION DYNAMICS CORPORATION OF AMERICA) for 60 seconds. The homogenate were centrifuged under 20,000×G for 60 minutes at 4° C. The supernatant was separated and the resulting pellet was added to the same buffer (1.5 ml/g wet weight), and homogenized under the same conditions. Triton X100 (2% w/v) was added and the mixture was stirred for 3 hours at 4° C. The centrifugation at 100,000×G for 60 minutes at 4° C. yielded the rat muscle extract as supernatant. This was stored at 4° C. for up to 4 weeks, and used for binding assays at receptors.
# (2) Experiments of α1β1γδ Subtype of Nicotinic Acetylcholine Receptors Binding
# Receptors binding experiments were performed as follow. That is, the extract of rat muscle containing 600-900 μg of protein was added to test tubes containing test compounds and incubated for 15 minutes at 37° C. Then, to this mixture was added 1 nM of [^3H]-α-bungarotoxin (α-Bgt) and further incubated for 2 hours. The samples were isolated by vacuum filtration onto Whatman GF/B filters, which were prerinsed with 0.5% polyethylenimine just prior to sample filtration, using Brandel multi manifold cell harvester. The filters were rapidly rinsed with washing solution (10 mM of KH2PO4, 150 mM of NaCl, pH 7.2, room temperature) (5×1 ml). The filters were counted in 3 ml of clearsol I (Nacalai Tesque Inc.). The determination of nonspecific binding was incubated in the presence of 1 μM α-Bgt. […] In the receptor binding experiments, said buffer solution was added for adjusting the final concentration of BSA to be 0.05%.
# The analyses of the experimental results were conducted by as described in the Biological Experiment 1.
structure (smiles),measurement,setting,value
"Clc1ccc(C/N=C2\NCCCN2Cc2ccc(Cl)nc2)cn1 [Compound 3, 1-(6-chloro-3-pyridyl)methyl-[(6-chloro-3-pyridyl)methyl]imino-1,2,3,4,5,6-hexahydropyrimidine]",Ki,[1],739 nM
same,control % of [3H]-α-Bgt binding at 100 μM of test compound,[2],77%
same,"control % of [3H]-α-Bgt binding at 1,000 μM of test compound",[2],76%
"N=C1N(Cc2ccc(Cl)nc2)CCCN1Cc1ccc(Cl)nc1 [Compound 4, 1,3-bis[(6-chloro-3-pyridyl)methyl]-2-imino-1,2,3,4,5,6-hexahydropyrimidine]",Ki,[1],475 nM
same,control % of [3H]-α-Bgt binding at 100 μM of test compound,[2],49%
same,"control % of [3H]-α-Bgt binding at 1,000 μM of test compound",[2],30%
"Clc1ccc(C/N=c2\ncccn2Cc2ccc(Cl)nc2)cn1 [Compound 5, 1-(6-chloro-3-pyridyl)methyl-2-[(6-chloro-3-pyridyl)methyl]imino-1,2-dihydropyrimidine]",control % of [3H]-cytisine binding at 1 μM of test compound,[1],92%
same,control % of [3H]-cytisine binding at 10 μM of test compound,[1],23%
"Clc1cc/c(=N\Cc2ccc(Cl)nc2)n(Cc2ccc(Cl)nc2)c1 [Compound 6, 5-chloro-1-(6-chloro-3-pyridyl)methyl-2-[(6-chloro-3-pyridyl)methyl]imino-1,2-dihydropyridine]",control % of [3H]-cytisine binding at 1 μM of test compound,[1],94%
same,control % of [3H]-cytisine binding at 10 μM of test compound,[1],45%
"CC1CCC/C(=N\Cc2ccc(Cl)nc2)N1Cc1ccc(Cl)nc1 (stereo not shown) [Compound 7, 1-(6-chloro-3-pyridyl)methyl-2-[(6-chloro-3-pyridyl)methyl]imino-6-methylpiperidine]",control % of [3H]-cytisine binding at 1 μM of test compound,[1],85%
same,control % of [3H]-cytisine binding at 10 μM of test compound,[1],75%
same,control % of [3H]-α-Bgt binding at 100 μM of test compound,[2],85%
same,"control % of [3H]-α-Bgt binding at 1,000 μM of test compound",[2],52%
"Cc1cs/c(=N\Cc2ccc(Cl)nc2)n1Cc1ccc(Cl)nc1 [Compound 9, 3-(6-Chloro-3-pyridyl)methyl-2-[(6-chloro-3-pyridyl)methyl]imino-4-methyl-2,3-dihydrothiazole]",Ki,[1],110 nM
same,control % of [3H]-α-Bgt binding at 100 μM of test compound,[2],78%
same,"control % of [3H]-α-Bgt binding at 1,000 μM of test compound",[2],40%
"N=c1n(Cc2ccc(Cl)nc2)ccn1Cc1ccc(Cl)nc1 [Compound 10, 1,3-bis[(6-chloro-3-pyridyl)methyl]-2-imino-2,3-dihydroimidazole]",control % of [3H]-cytisine binding at 1 μM of test compound,[1],89%
same,control % of [3H]-cytisine binding at 10 μM of test compound,[1],46%
"C/N=C1\SCCN1Cc1ccc(Cl)nc1 [Compound 11, 3-(6-chloro-3-pyridyl)methyl-2-methylimino-thiazolidine]",control % of [3H]-cytisine binding at 1 μM of test compound,[1],93%
same,control % of [3H]-cytisine binding at 10 μM of test compound,[1],18%
"Clc1ccc(Cn2ccs/c2=N\c2ccccc2)cn1 [Compound 12, 3-(6-Chloro-3-pyridyl)methyl-2-phenylimino-2,3-dihydrothiazole]",control % of [3H]-cytisine binding at 1 μM of test compound,[1],109%
same,control % of [3H]-cytisine binding at 10 μM of test compound,[1],84%
same,control % of [3H]-α-Bgt binding at 100 μM of test compound,[2],86%
same,"control % of [3H]-α-Bgt binding at 1,000 μM of test compound",[2],48%
"Clc1ccc(CN2CCS/C2=N\Cc2ccccc2)cn1 [Compound 14, 2-Benzylimino-3-(6-chloro-3-pyridyl)methylthiazolidine]",Ki,[1],123 nM
same,control % of [3H]-α-Bgt binding at 100 μM of test compound,[2],64%
same,"control % of [3H]-α-Bgt binding at 1,000 μM of test compound",[2],20%
